This note sets out measurements from patent US11780827B2, “Substituted 3-phenoxyazetidin-1-yl-pyrazines” (Boehringer Ingelheim International GmbH, priority 2020, dated 2023).

The target in the assay is T1, human GPR52 (Homo sapiens, UniProt Q9Y2T5).
T1 construct: expressed in transfected cells; host or cells: CHO-K1
Put plainly: HTRF assay for direct cAMP measurement. It counts as cell-based. To be noted: CHO-K1 cells stably expressing recombinant human GPR52, mean EC50. Here is the method:
Homogeneous Time-Resolved Fluorescence (HTRF) Assay for Direct cAMP Measurement.
HTRF cAMP assays were performed using commercially available assay kits according to the manufacturer's instructions (cAMP Dynamic 2 Assay Kit; #62AM4PEJ, Cisbio Bioassays, Bedford, Mass.). An aliquot of CHO-K1 cells stably expressing recombinant human GPR52 is thawed and resuspended in cell buffer (1×PBS (w/o Ca^2+/Mg^2+)) at a density of 4×10^5 cells per mL Test compounds were solubilized in DMSO to 10 mM stock solutions and serially diluted in DMSO using 6-fold dilutions to generate 8-point dose response curves. These serially diluted samples were then diluted 1:50 in compound dilution buffer (1×PBS (w/o Ca^2+/Mg^2+) containing 0.5 mM IBMX, 0.1% BSA) to achieve a 4× stock. The diluted compounds were transferred (5 μL per well) in duplicate to the 384-well assay plate (Optiplate #6007290, PerkinElmer, Waltham, Mass.). Both a positive (reference compound) and negative (non-stimulated vehicle) control are included in each assay run in column 23. The cell suspension was subsequently dispensed into the 384-well assay plates at 15 μL per well (6000 cells) such that the compound was diluted to 1×. […] After a one-hour incubation at room temperature, 10 μL of cAMP D2 reagent followed by 10 μL of cryptate reagent (provided in the Cisbio kit) was added to each well. Plates were then incubated at room temperature for one hour prior to reading. Time-resolved fluorescence measurements were collected on an EnVision® HTRF plate reader (PerkinElmer, Waltham, Mass.). Counts from the plate reader were fit to the cAMP standard curve included on each plate to determine the amount of cAMP in each test well. The % control was calculated based on the positive control set at […]. Dose-response curves were generated from the cAMP data and analyzed using a nonlinear least squares curve-fitting program to obtain EC50 values.
(TR-FRET usually uses a lanthanide donor and a delayed reading to cut background.)

T1 sequence (Q9Y2T5 whole entry): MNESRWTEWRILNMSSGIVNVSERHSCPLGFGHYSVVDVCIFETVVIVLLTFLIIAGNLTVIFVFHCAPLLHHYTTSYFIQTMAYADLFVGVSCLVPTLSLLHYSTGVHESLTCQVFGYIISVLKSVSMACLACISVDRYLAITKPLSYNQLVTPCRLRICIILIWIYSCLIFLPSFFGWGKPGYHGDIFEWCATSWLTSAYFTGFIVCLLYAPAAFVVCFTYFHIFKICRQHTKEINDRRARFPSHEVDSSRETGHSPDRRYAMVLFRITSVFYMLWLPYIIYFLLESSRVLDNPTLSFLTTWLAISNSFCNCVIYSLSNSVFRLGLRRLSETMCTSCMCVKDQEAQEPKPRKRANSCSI

By EC50 is commonly meant the concentration at which the effect is half-maximal. With `CCc1cc(NC(=O)c2nccnc2N2CC(Oc3cc(F)c(F)c(Cl)c3)C2)cnn1` [Example 23], the EC50 turned out to be 6 nM.

Regarding `CCc1cc(NC(=O)c2nccnc2N2CC(Oc3cc(F)cc(Cl)c3)C2)cnn1` [Example 18], the EC50 was found to be 6 nM.

Regarding `Cc1cc(NC(=O)c2nccnc2N2CC(Oc3cc(F)cc(Cl)c3)C2)ncn1` [Example 30], the EC50 worked out at 8 nM.

As for `O=C(Nc1ccnnc1)c1nccnc1N1CC(Oc2ccc(F)c(Cl)c2)C1` [Example 7], the EC50 was found to be 10 nM.

For the compound `O=C(Nc1ccnnc1)c1nccnc1N1CC(Oc2cc(F)cc(C(F)F)c2)C1` [Example 6], the EC50 was found to be 6 nM.

As for `O=C(Nc1ccncn1)c1nccnc1N1CC(Oc2ccc(F)c(Cl)c2)C1` [Example 44], the concentration for a half-maximal effect (EC50) amounted to 37 nM.

On to `CCc1cc(NC(=O)c2nccnc2N2CC(Oc3cc(F)cc(Cl)c3)C2)ncn1` [Example 35], for which the EC50 was found to be 8 nM.

Regarding `O=C(Nc1cc(C(F)(F)F)ncn1)c1nccnc1N1CC(Oc2ccc(F)c(Cl)c2)C1` [Example 45], the EC50 is 14 nM.

Turning to `CCc1cc(NC(=O)c2nccnc2N2CC(Oc3cc(F)c(F)c(F)c3)C2)cnn1` [Example 20], the EC50 came to 5 nM.

Turning to `CCc1cc(NC(=O)c2nccnc2N2CC(Oc3cc(F)cc(C(F)(F)F)c3)C2)ncn1` [Example 34], the EC50 came out at 30 nM.

`O=C(Nc1ccncn1)c1nccnc1N1CC(Oc2cc(F)c(F)c(Cl)c2)C1` [Example 41]: the EC50 is 12 nM.

Regarding `O=C(Nc1ccnnc1)c1nccnc1N1CC(Oc2cc(F)cc(C(F)(F)F)c2)C1` [Example 1], the 50% effective concentration (EC50) turned out to be 9 nM.

As to `O=C(Nc1ccnnc1)c1nccnc1N1CC(Oc2cc(F)cc(Cl)c2)C1` [Example 2], the 50% effective concentration (EC50) was 9 nM.

Turning to `Cc1cc(NC(=O)c2nccnc2N2CC(Oc3cc(F)c(F)c(Cl)c3)C2)ncn1` [Example 32], the EC50 came out at 8 nM.

For `CCc1cc(NC(=O)c2nccnc2N2CC(Oc3cc(F)cc(C(F)(F)F)c3)C2)cnn1` [Example 17], the EC50 was found to be 11 nM.

With `CCc1cc(NC(=O)c2nccnc2N2CC(Oc3ccc(F)c(Cl)c3)C2)ncn1` [Example 40], the EC50 came to 5 nM.

In the case of `CCc1cc(NC(=O)c2nccnc2N2CC(Oc3cc(F)cc(C(F)F)c3)C2)cnn1` [Example 22], the EC50 was 7 nM.

With `Cc1cc(NC(=O)c2nccnc2N2CC(Oc3cc(F)cc(F)c3)C2)ncn1` [Example 28], the EC50 amounted to 12 nM.

As for `CCc1cc(NC(=O)c2nccnc2N2CC(Oc3ccc(F)c(F)c3)C2)ncn1` [Example 37], the EC50 was 3 nM.

Regarding `O=C(Nc1ccncn1)c1nccnc1N1CC(Oc2ccc(F)c(F)c2)C1` [Example 43], the EC50 amounted to 45 nM.

As for `O=C(Nc1ccncn1)c1nccnc1N1CC(Oc2cc(F)c(F)c(F)c2)C1` [Example 42], the EC50 was 23 nM.

On to `CCc1cc(NC(=O)c2nccnc2N2CC(Oc3cc(F)cc(F)c3)C2)cnn1` [Example 24], for which the EC50 was determined as 6 nM.

With `Cc1cc(NC(=O)c2nccnc2N2CC(Oc3ccc(F)c(Cl)c3)C2)cnn1` [Example 16], the EC50 was 4 nM.

As for `Cc1cc(NC(=O)c2nccnc2N2CC(Oc3cc(F)cc(C(F)(F)F)c3)C2)ncn1` [Example 31], the EC50 was 17 nM.

`CCc1cc(NC(=O)c2nccnc2N2CC(Oc3cc(F)c(F)c(F)c3)C2)ncn1` [Example 36]: the EC50 is 6 nM.

Consider `O=C(Nc1ccnnc1)c1nccnc1N1CC(Oc2cc(F)cc(F)c2)C1` [Example 3], for which the EC50 was 19 nM.

Turning to `Cc1cc(NC(=O)c2nccnc2N2CC(Oc3cc(F)c(F)c(F)c3)C2)ncn1` [Example 26], the EC50 came out at 6 nM.

With `O=C(Nc1ccnnc1)c1nccnc1N1CC(Oc2cc(F)c(F)c(Cl)c2)C1` [Example 8], the EC50 stood at 4 nM.

Regarding `CCc1cc(NC(=O)c2nccnc2N2CC(Oc3cc(F)cc(C(F)F)c3)C2)ncn1` [Example 39], the concentration for a half-maximal effect (EC50) worked out at 12 nM.

With `Cc1cc(NC(=O)c2nccnc2N2CC(Oc3cc(F)cc(C(F)F)c3)C2)ncn1` [Example 27], the concentration giving a half-maximal response (EC50) was 11 nM.

For the compound `O=C(Nc1cc(C(F)(F)F)ncn1)c1nccnc1N1CC(Oc2ccc(F)c(F)c2)C1` [Example 46], the EC50 was 7 nM.
